Structures are written as SMILES.

For test [1], the system named is southern crabgrass. As to the kind of experiment: Test Example 4: herbicidal effect by soil treatment (Table 19, symbol F). The class given is in vivo, southern crabgrass (Digitaria ciliaris). The following applies: amount of applied herbicide 320 g/ha. An excerpt: (§1) [Test Example 4] Herbicidal Effect Test by Soil Treatment
(§2) Sterilized diluvial soil was placed in a plastic box having a length of 21 cm, a width of 13 cm, and a depth of 7 cm. The seeds of each of southern crabgrass, green foxtail, barnyard grass, wild oat, blackgrass, Italian ryegrass, windgrass, velvetleaf, redroot pigweed, lambsquarters, chickweed, false cleavers, persian speedwell, corn, soybean, rice, wheat, beet, and rapeseed were sowed in a spot-like manner and covered with the soil having a thickness of about 1.5 cm. Subsequently, the emulsion agent of the compound of the present invention prepared according to Formulation Example 2 was diluted with water so as to achieve a predetermined herbicide amount, and the diluted emulsion agent was uniformly applied to the surface of the soil with a small-sized spray. The plastic box was placed in a greenhouse at 25° C. to 30° C. for growth of the plants. Three weeks after the herbicide application, the effect of the herbicide on each plant was evaluated according to the criteria of Test Example 1.

Test [2] relates to lambsquarters. As to the kind of experiment: Test Example 4: herbicidal effect by soil treatment (Table 19, symbol O). In kind it is in vivo, lambsquarters (Chenopodium album). The following applies: amount of applied herbicide 320 g/ha.
Description: as §1, §2

Test [3] concerns green foxtail. As to the kind of experiment: Test Example 5: herbicidal effect by foliage application, plastic box (Table 20, symbol G). The following applies: 320 g/ha. In kind it is in vivo, green foxtail (Setaria viridis). The method in brief:
(§3)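 Plants sown in sterilized diluvial soil and grown 14 days in a greenhouse at 25° C to 30° C, then sprayed on the foliage with the compound's emulsion diluted in water to a predetermined herbicide amount. Injury to weeds and crops scored three weeks after application on a visual rating scale.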

The subject of test [4] is velvetleaf. Briefly: Test Example 5: herbicidal effect by foliage application, plastic box (Table 20, symbol M). In kind it is in vivo, velvetleaf (Abutilon theophrasti). The following applies: 320 g/ha. The method in brief: as §3
The next test has as its system rice flat sedge. Briefly: Test Example 3: herbicidal effect by foliage application, Wagner pot (Table 18, symbol E). The class given is in vivo, rice flat sedge (Cyperus iria). The following applies: amount of applied herbicide 320 g/ha. The method, boiled down:
(§4)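 Plants were sown in alluvial soil held under 0.1–0.5 cm standing water and grown 14 days in a greenhouse at 25–30 °C. An emulsifiable formulation, water-diluted to the set dose, was then sprayed onto the foliage, and effects were scored three weeks later using previously defined criteria.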

For test [5], the system named is barnyard grass. As to the kind of experiment: Test Example 5: herbicidal effect by foliage application, plastic box (Table 20, symbol H). In kind it is in vivo, barnyard grass (Echinochloa crus-galli). The settings on record: 320 g/ha. The method in brief: as §3
In test [6] the test system is barnyard grass. As to the kind of experiment: Test Example 3: herbicidal effect by foliage application, Wagner pot (Table 18, symbol H). In kind it is in vivo, barnyard grass (Echinochloa crus-galli). The settings on record: amount of applied herbicide 320 g/ha. The method, boiled down:
as §4

Test [7] relates to barnyard grass. As to the kind of experiment: Test Example 4: herbicidal effect by soil treatment (Table 19, symbol H). The class given is in vivo, barnyard grass (Echinochloa crus-galli). The following applies: amount of applied herbicide 320 g/ha.
Description: as §1, §2

The subject of a further test is Chinese sprangletop. Briefly: Test Example 3: herbicidal effect by foliage application, Wagner pot (Table 18, symbol D). In kind it is in vivo, chinese sprangletop (Leptochloa chinensis). The following applies: amount of applied herbicide 320 g/ha. The method, boiled down:
as §4

Test [8] relates to southern crabgrass. As to the kind of experiment: Test Example 5: herbicidal effect by foliage application, plastic box (Table 20, symbol F). The class given is in vivo, southern crabgrass (Digitaria ciliaris). The following applies: 320 g/ha. The method in brief:
as §3

In test [9] the test system is green foxtail. Briefly: Test Example 4: herbicidal effect by soil treatment (Table 19, symbol G). In kind it is in vivo, green foxtail (Setaria viridis). The following applies: amount of applied herbicide 320 g/ha.
Description: as §1, §2

In test [10] the test system is redroot pigweed. Briefly: Test Example 5: herbicidal effect by foliage application, plastic box (Table 20, symbol N). In kind it is in vivo, redroot pigweed (Amaranthus retroflexus). The following applies: 320 g/ha.
Description: [Test Example 5] Herbicidal Effect Test by Foliage Application
as §2, with “Thereafter, the plants were grown in a greenhouse at 25° C. to 30° C. After 14-day growth of the plants,” for “Subsequently,”, “a foliage part” for “the surface of the soil”, “spray.” for “spray. The plastic box was placed in a greenhouse at 25° C. to 30° C. for growth of the plants.”

For test [11], the system named is lambsquarters. As to the kind of experiment: Test Example 5: herbicidal effect by foliage application, plastic box (Table 20, symbol O). In kind it is in vivo, lambsquarters (Chenopodium album). The settings on record: 320 g/ha. The method, boiled down: as §3
Test [12] deals with velvetleaf. As to the kind of experiment: Test Example 4: herbicidal effect by soil treatment (Table 19, symbol M). In kind it is in vivo, velvetleaf (Abutilon theophrasti). The following applies: amount of applied herbicide 320 g/ha.
Description: as §1, §2

In test [13] the test system is redroot pigweed. As to the kind of experiment: Test Example 4: herbicidal effect by soil treatment (Table 19, symbol N). In kind it is in vivo, redroot pigweed (Amaranthus retroflexus). The following applies: amount of applied herbicide 320 g/ha.
Description: as §1, §2

[14] abbreviates: foliage application, three weeks after application.
[15] abbreviates: foliage application after 14-day growth, evaluated three weeks after application.

As for `COCCOc1ccc(-c2sc3ccc(F)cc3c2-c2c(O)c(N)nn(C)c2=O)cc1` [2-456], the “herbicidal effect, F: southern crabgrass” value in the test on southern crabgrass [1] is recorded as 0 (Herbicidal rate of 5% or less (almost no effect)). Further, the “herbicidal effect, O: lambsquarters” value with lambsquarters [2] is 3 (Herbicidal rate of 40% or more and less than 70%). Further, the “G: green foxtail, herbicidal effect grade” value with green foxtail [3] (setting [14]) was 1 (Herbicidal rate of 5% or more and less than 20%). In addition, the “M: velvetleaf, herbicidal effect grade” value with velvetleaf [4] (setting [14]) was 3 (Herbicidal rate of 40% or more and less than 70%). Moreover, the “herbicidal effect on E: rice flat sedge” value with rice flat sedge is given as 0 (Herbicidal rate of 5% or less (almost no effect)). Also, the “H: barnyard grass, herbicidal effect grade” value in the test with barnyard grass [5] (setting [14]) was 2 (Herbicidal rate of 20% or more and less than 40%). Further, the “herbicidal effect on H: barnyard grass” value with barnyard grass [6] is 3 (Herbicidal rate of 40% or more and less than 70%). For the same compound, the “herbicidal effect, H: barnyard grass” value in the test with barnyard grass [7] is on record as 0 (Herbicidal rate of 5% or less (almost no effect)). For the same compound, in the test on Chinese sprangletop, the “herbicidal effect on D: Chinese sprangletop” value is on record as 0 (Herbicidal rate of 5% or less (almost no effect)). The “F: southern crabgrass, herbicidal effect grade” value in the test with southern crabgrass [8] (setting [14]) is on record as 0 (Herbicidal rate of 5% or less (almost no effect)). The “herbicidal effect, G: green foxtail” value with green foxtail [9] is recorded as 0 (Herbicidal rate of 5% or less (almost no effect)). In the test with redroot pigweed [10] (setting [14]), the “N: redroot pigweed, herbicidal effect grade” value was 4 (Herbicidal rate of 70% or more and less than 90%). For the same compound, in the test with lambsquarters [11] (setting [14]), the “O: lambsquarters, herbicidal effect grade” value was 3 (Herbicidal rate of 40% or more and less than 70%). Further, the “herbicidal effect, M: velvetleaf” value with velvetleaf [12] is reported as 0 (Herbicidal rate of 5% or less (almost no effect)). The “herbicidal effect, N: redroot pigweed” value in the test with redroot pigweed [13] is 5 (Herbicidal rate of 90% or more (almost completely withered)).

As to `Cc1ccc2c(-c3c(O)c(C)nn(C)c3=O)c(-c3ccc(OC(F)(F)F)cc3)sc2c1` [3-168], the “Herbicidal effect by soil treatment, F: southern crabgrass” value in the test with southern crabgrass [1] is reported as 0 (Herbicidal rate of 5% or less (almost no effect)). The “Herbicidal effect by soil treatment, O: lambsquarters” value with lambsquarters [2] is 0 (Herbicidal rate of 5% or less (almost no effect)). For the same compound, the “herbicidal effect on G: green foxtail (evaluation grade 0-5)” value in the test on green foxtail [3] (setting [15]) is reported as 0 (Herbicidal rate of 5% or less (almost no effect)). The “herbicidal effect on M: velvetleaf (evaluation grade 0-5)” value in the test with velvetleaf [4] (setting [15]) is 0 (Herbicidal rate of 5% or less (almost no effect)). The “herbicidal effect on H: barnyard grass (evaluation grade 0-5)” value with barnyard grass [5] (setting [15]) was 0 (Herbicidal rate of 5% or less (almost no effect)). Besides, the “Herbicidal effect by soil treatment, H: barnyard grass” value in the test with barnyard grass [7] is recorded as 0 (Herbicidal rate of 5% or less (almost no effect)). Besides, the “herbicidal effect on F: southern crabgrass (evaluation grade 0-5)” value with southern crabgrass [8] (setting [15]) was 0 (Herbicidal rate of 5% or less (almost no effect)). In addition, the “Herbicidal effect by soil treatment, G: green foxtail” value in the test on green foxtail [9] is on record as 0 (Herbicidal rate of 5% or less (almost no effect)). Moreover, the “herbicidal effect on N: redroot pigweed (evaluation grade 0-5)” value with redroot pigweed [10] (setting [15]) was 2 (Herbicidal rate of 20% or more and less than 40%). Besides, the “herbicidal effect on O: lambsquarters (evaluation grade 0-5)” value in the test on lambsquarters [11] (setting [15]) is 3 (Herbicidal rate of 40% or more and less than 70%). In the test on velvetleaf [12], the “Herbicidal effect by soil treatment, M: velvetleaf” value is on record as 0 (Herbicidal rate of 5% or less (almost no effect)). Besides, in the test with redroot pigweed [13], the “Herbicidal effect by soil treatment, N: redroot pigweed” value was 3 (Herbicidal rate of 40% or more and less than 70%).

(Values after US20230085307A1, “PYRIDAZINONE COMPOUND AND HERBICIDE” (NISSAN CHEMICAL CORPORATION, priority 2019, published 2023).)
